Marks after values point to notes of the source that are not given here.
Test system: male ICR mice on high-fat feed
Experiment: Body fat and body weight reduction in mice given high-fat feed
Format: in vivo, mouse
Conditions: extracts 300 mg/kg
From the text: As experimental animals, 4-week-old male ICR mice were purchased from Orient Bio and acclimated for a week. Each group consisted of 10 animals. For a normal diet group (G1) and high-fat diet groups (G2 to G6), normal feed (energy ratio (kcal %); protein:carbohydrate:fat=20:70:10) or high-fat feed (energy ratio (kcal %); protein:carbohydrate:fat=20:20:60) purchased from Research Diets, Inc. (New Brunswick, NJ, USA) was provided, respectively. The feed and water were allowed freely. The specific compositions of the normal feed and the high-fat feed are described in Table 6. The test substance was administered orally at regular intervals for 8 weeks by dissolving in physiological saline (G3 to G6). For G1 and G2, physiological saline containing no test substance was administered orally. The experimental animal breeding room was maintained at 12-hour lighting cycles under the condition of 23±3° C., 50 t 10% relative humidity and 10-15 ventilations/hour. The animal experiment was conducted in accordance with the regulations of the Hallym University Institutional Animal Care and Use Committee (Hallym 2018-31). The experimental animals were divided into […]: normal group (G) to which normal feed was given for 6 weeks; control group (G2) to which high-fat feed was given; G3 to which high-fat feed was given and 300 mg/kg of the Gynostemma pentaphyllum tea extract of Example was administered; G4 to which 300 mg/kg of the Gynostemma pentaphyllum tea extract of Comparative Example was administered; G5 to which 300 mg/kg of the Gynostemma pentaphyllum tea extract of Comparative Example 2 was administered; G6 to which 300 mg/kg of the Gynostemma pentaphyllum tea extract of Comparative Example 3 was administered; […] The composition of the test groups is described specifically in Table 7. Initial body weight, final body weight, total body weight gain, feed intake, body fat percentage and feed efficiency ratio (FER) were measured while providing the feed specified in 6-2 to each test group for 8 weeks. Specifically, the body weight was measured using a digital scale once a week at the same time. The feed efficiency ratio (FER) was calculated by the following equation. The result of investigating the initial body weight, final body weight, total body weight gain, feed intake, body fat percentage and feed efficiency ratio for 8 weeks is given in Table 8. Feed efficiency ratio (FER)=body weight gain (g)/feed intake (g) [Equation]

[1] = high-fat feed, 8 weeks oral, orlistat 30 mg/kg

CCCCCCCCCCC[C@@H](C[C@@H]1OC(=O)[C@H]1CCCCCC)OC(=O)[C@H](CC(C)C)NC=O [Orlistat, orlistat]
Initial body weight (baseline, high-fat feed ICR mice, orlistat 30 mg/kg oral): 21.7 ± 0.2 g
Feed efficiency ratio (FER) (body weight gain (g)/feed intake (g), high-fat feed, 8 weeks oral, orlistat 30 mg/kg): 0.126 ± 0.005
Body fat percentage (%) [1]: 36.6 ± 0.7 %
Body weight gain (%) [1]: 70.97* %
Final body weight [1]: 37.1 ± 0.6 g
Total body weight gain [1]: 15.4 ± 0.2 g
Total feed intake [1]: 122.4 ± 0.3 g
